Among the data in PubChem BioAssay AID179 (DTP/NCI, 2004) are EC50, IC50 and outcome values, retold here.

SMILES strings stand for the structures. Where “and” joins values, the source holds several entries; their conditions need not be identical. Equal values may be shown once. Calls of active or inactive are those of the source.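 How the source made its calls: active means compounds giving half or more protection of infected cells from virus-caused growth loss, again on retest; inactive means the rest.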 Where a SMILES comes first, the peptide text is derived from it. Some results are limits rather than exact numbers.

For this assay, the system named is CEM cells HIV-1 protection, formazan growth assay. As to the kind of experiment: NCI AIDS Antiviral Assay. The following applies: for IC50: measured here: growth of uninfected CEM cells. A digest of the protocol:
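Human CEM cells, uninfected and HIV-1-infected, exposed to five drug concentrations; growth measured by soluble formazan assay and scored as percent protection from infection, with protecting compounds retested.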

The EC50 is the midpoint of the concentration-response curve. The term IC50 denotes the point on the concentration scale where inhibition reaches its midpoint. Read a high IC50 as weaker potency in that assay. In the case of `C=C(/C=C/C=C(\CO)CCC=C(C)C)[C@H]1CCC2([C@H](CCCO)/C(=C(/C)C=O)CC[C@]2(C)O)[C@H]1O` (stereo partly drawn), the EC50 is more than 263 µM and the concentration for half-maximal inhibition (IC50) was 195 µM. Taken in the same sequence, the figures for `COc1ccc(Nc2nc3c([nH]2)c(=O)n(C)c(=O)n3C)cc1` were more than 200 µM and more than 200 µM.

Regarding `CC1(Cl)CCC2(CC(Br)=CC3OC32C)CC1Br` (stereo not drawn), the outcome was inactive.

With `Cc1cn(C2CCC(CO)O2)c(=O)[nH]c1=O` (stereo not drawn), the EC50 is 162 µM and the half-inhibitory concentration (IC50) was more than 200 µM.

As to `CC1=C(C(=O)Nc2cc(F)c(F)cc2F)C(c2ccc3c(c2)OCO3)C(C(=O)Nc2cc(F)c(F)cc2F)=C(C)N1`, the EC50 was more than 61.7 µM and the IC50 was 46.8 µM.

As to `CCOC(=O)c1ccc(N2CCN(c3c(C)nc(N)nc3N)CC2)cc1`, the EC50 is more than 100 µM and the half-inhibitory concentration (IC50) is 0.0316 µM. With `O=C(CN1CCCCC1)Nc1ccc2c(c1)C1Oc3ccccc3CC1CO2` (stereo not drawn), the result was inactive. Take `CCOC(=O)CNC(SC)=C(C#N)C#N`: the outcome was inactive. For the compound `CC(=O)OCC1OC(n2c(=S)n(-c3ccccc3)c(=S)c3ccccc32)C(OC(C)=O)C(OC(C)=O)C1OC(C)=O` (stereo not drawn), the EC50 was more than 16.6 µM and the IC50 was more than 16.6 µM.

In the case of `O=Nc1ccc(O)cc1Cc1ccccc1`, the EC50 was more than 200 µM and the half-inhibitory concentration (IC50) is 3.63 µM. `N#Cc1ccccc1CSc1ncnc2nc[nH]c12`: the EC50 is 12.3 µM and the IC50 was 105 µM.

Regarding `Cc1c(O)c2ccccc2oc1=O`, the EC50 was more than 200 µM and the IC50 is more than 200 µM. As to `NC(=S)N/N=C1\COC(C(F)(F)F)(C(F)(F)F)C1`, the EC50 was more than 200 µM and the IC50 came out at 166 µM. For the compound `O=C(Nc1ccc(I)cc1)c1ccccc1[Se][Se]c1ccccc1C(=O)Nc1ccc(I)cc1`, the EC50 was more than 4.68 µM and the IC50 was more than 4.68 µM. For `O=C(Cc1nc2ccccc2s1)Nc1cccc(C(F)(F)F)c1`, the EC50 is more than 21.4 µM and the half-inhibitory concentration (IC50) worked out at 17.4 µM. For `CCOC(=O)C(=O)Nc1c(C(C)C)cccc1C(C)C`, the result was inactive.

For the compound `Cc1cc(N(CCC#N)CCC#N)ccc1/C=C(\NC(=O)/C=C/c1ccccc1)C(=O)NN`, the outcome was inactive. Turning to `COc1cccc2c(=O)c3ccccc3oc12`, the EC50 is more than 200 µM and the IC50 was more than 200 µM. `COc1cccc(CC2NCCc3c2[nH]c2ccccc32)c1` (stereo not drawn): the EC50 is more than 251 µM and the IC50 was found to be 46.8 µM. Regarding `Cc1nc(C)c(N2CCNCC2)c(=O)[nH]1`, the result was inactive. In the case of `O=C(O)c1cc(N=Nc2cc(S(=O)(=O)O)c3cccnc3c2O)ccc1/C=C/c1ccc(N=Nc2cc(S(=O)(=O)O)c3cccnc3c2O)cc1C(=O)O`, the EC50 is 4.27 µM and 21.4 µM; the half-maximal inhibitory concentration (IC50) is 61.7 µM and > 200 µM. With `CCOC(=O)C1=C(C)CC2C(=O)OC(=O)C2C1(C)C` (stereo not drawn), the outcome was inactive. Regarding `Cc1ccc(Nc2nc(N)[nH]c(=O)c2N=O)cc1`, the EC50 was more than 200 µM and the IC50 was found to be 14.8 µM. For the compound `COc1cccc(C2c3cc4c(cc3OC(N3CCCCC3)C2C)OCO4)c1OC` (stereo not drawn), the EC50 is more than 200 µM and the IC50 turned out to be 1.7 µM. `Cc1ccc(S(=O)(=O)c2c(N)c3nccn3c3nc4ccccc4nc23)cc1`: the EC50 was more than 25.7 µM and the 50% inhibitory concentration (IC50) was more than 25.7 µM.

With `NC(CO)C(=O)N1CCCC1C(=O)NC(Cc1ccc(O)cc1)C(=O)N1CCCC1C(=O)NC(CO)C(=O)O` (stereo not drawn) (H-SPYPS-OH; configuration not given here), the EC50 is more than 112 µM and the concentration for half-maximal inhibition (IC50) is more than 112 µM. Consider `Brc1ccc(-c2ccc(-c3ccc(-c4ccc(Br)s4)s3)s2)s1`, for which the EC50 was more than 200 µM and the IC50 is more than 200 µM. In the case of `C[C@@H]1CN(C(=O)CCOS(C)(=O)=O)[C@@H](C)CN1C(=O)CCOS(C)(=O)=O`, the EC50 was more than 200 µM and the IC50 was 67.6 µM. In the case of `CC(C1=C(O)c2ccccc2C(=O)C1=O)C1=C(O)c2ccccc2C(=O)C1=O`, the EC50 is more than 200 µM and the concentration for half-maximal inhibition (IC50) is 50.1 µM. Turning to `Cc1nc2cc3[nH]c4ccccc4c(=O)c3cc2s1`, the EC50 is more than 148 µM and the 50% inhibitory concentration (IC50) was more than 148 µM.

Regarding `CCCCCCCCCCCCCCCCC(C(=O)OC)S(=O)(=O)O` (stereo not drawn), the EC50 is more than 200 µM and the concentration for half-maximal inhibition (IC50) turned out to be 123 µM. The matching figures for `CCN(CC)CC(C)Nc1cc(C)nc2c1ccc1c2ccc2c(NC(C)CN(CC)CC)cc(C)nc21` (stereo not drawn): more than 380 µM and 234 µM. Regarding `N#Cc1ccc(OCc2nc3cc(C(F)(F)F)ccc3nc2-c2ccccc2)cc1`, the EC50 is more than 200 µM and the IC50 worked out at 30.2 µM. Taken in the same sequence, the figures for `CCN(CC)CC(=O)Nc1ccc(CO)cc1` were more than 200 µM and more than 200 µM. For the compound `c1cncc(CN2CCCCCC2)c1`, the outcome was inactive. Consider `CC1(O)[C@@H]2O[C@@H]2C2(CCCO2)[C@@H]2O[C@@H]21` (stereo partly drawn), for which the EC50 is more than 200 µM and the IC50 is more than 200 µM. Regarding `O=P(NC1CCCCC1)(NC1CCCCC1)NC1CCCCC1`, the EC50 is more than 200 µM and the IC50 is more than 200 µM.

For the compound `CC1=NC=C(O)c2ccccc2O1`, the EC50 is more than 40.7 µM and the IC50 is more than 40.7 µM. `CC(=O)NC1C(OCC(=O)NCCNc2ccc([N+](=O)[O-])c3[nH]c4ccccc4c(=O)c23)C(O)C(CO)OC1(C)OCc1ccccc1` (stereo not drawn): the EC50 is more than 200 µM and the IC50 was more than 200 µM.

Consider `C/C(=N/NC(=S)N1CCCCC1)c1ccccc1O`, for which the EC50 was more than 200 µM and the half-inhibitory concentration (IC50) is 91.2 µM. Taken in the same sequence, the figures for `CC(C)C(Sc1nc(-c2ccccc2)c(-c2ccccc2)[nH]1)C(=O)NNC(=S)Nc1ccccc1` (stereo not drawn) were more than 51.3 µM and 24 µM. Turning to `CCCCCOC(=O)C(=O)Nc1n[nH]nc1C(N)=O`, the EC50 is more than 200 µM and the concentration for half-maximal inhibition (IC50) is more than 200 µM. For the compound `O=C1CCCc2cc3c(cc21)CC1(Cc2ccccc2C1)C3`, the EC50 was more than 200 µM and the IC50 was 1.29 µM. Regarding `CCOC(=O)C(NC(=O)c1ccccc1)(Nc1ccc(S(=O)(=O)Nc2nc(C)cc(C)n2)cc1)C(F)(F)F` (stereo not drawn), the EC50 is more than 200 µM and the half-maximal inhibitory concentration (IC50) was more than 200 µM. `N#Cc1c2n(c3c(=O)n(-c4ccccc4)c(=S)[nH]c13)CCCCC2`: the EC50 was more than 151 µM and the half-maximal inhibitory concentration (IC50) was more than 151 µM. Take `COc1ccc2nc(NC(=O)/C(C#N)=C/c3ccccc3)sc2c1`: the EC50 is more than 200 µM and the IC50 was found to be 12 µM. Regarding `CCOC(=O)c1cc(Cl)cc2c(=O)c3c(O)c4[nH]c5c(C(=O)OCC)cc(Cl)cc5c(=O)c4c(O)c3[nH]c12`, the EC50 is more than 100 µM and the concentration for half-maximal inhibition (IC50) is 4.9 µM. With `CN1CCCC(C(=O)O)(c2ccccc2)CC1` (stereo not drawn), the outcome was inactive. Consider `COc1cnc([C@H]2CCC3[C@@H]4CC=C5C[C@@H](OC(=O)CCC(=O)O)CC[C@]5(C)C4CC[C@@]32C)s1` (stereo partly drawn), for which the EC50 is more than 51.3 µM and the IC50 came out at 29.5 µM.

Turning to `CCOC(=O)NN(C(=O)OCC)C(C(=O)C1CCCCC1)N(NC(=O)OCC)C(=O)OCC`, the result was inactive. With `COC(=O)CC=C(c1cc(Cl)c(OC)c(C(=O)OC)c1)c1cc(Cl)c(OC)c(C(=O)OC)c1`, the EC50 is more than 200 µM and the IC50 is 41.7 µM. Turning to `CCOC(=O)/C(C#N)=C(N)/C(=N\Nc1cccc(C(F)(F)F)c1)C(=O)OCC`, the outcome was inactive.
